Assay results as given in paper PMC3515450, “Mechanistic and Structural Understanding of Uncompetitive Inhibitors of Caspase-6” (PLoS ONE, 2012).
Substitutions are numbered along the chain they refer to. pKd: −log10 of the molar value.

What was measured:
[1] = target: T1, caspase-6/(VEID)2R110 Michaelis complex (Homo sapiens, UniProt P55212, C163A); experiment: SPR co-injection with (VEID)2R110 over apo- and C163A-caspase-6; format: binding; conditions: co-injected with (VEID)2R110, dissociation of both compound and substrate, read-out: apparent KD
T1 construct: Avi-tagged zymogen C163A-caspase-6 was processed to mature C163A-caspase-6 by the addition of active caspase-3 and caspase-6; made in house
T1 sequence (P55212 24-179 C163A): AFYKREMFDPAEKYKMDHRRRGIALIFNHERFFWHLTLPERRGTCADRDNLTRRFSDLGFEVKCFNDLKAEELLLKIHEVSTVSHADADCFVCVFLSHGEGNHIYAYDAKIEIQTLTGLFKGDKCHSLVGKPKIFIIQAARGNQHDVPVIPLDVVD
T1 sequence (P55212 194-293): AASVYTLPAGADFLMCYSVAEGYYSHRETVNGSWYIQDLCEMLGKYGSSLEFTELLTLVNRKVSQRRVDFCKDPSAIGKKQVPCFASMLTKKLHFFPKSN
Protocol: (§1) For SPR experiments, caspase-6 was cloned to include a C-terminal avi-tag (Avidity) and expressed and purified as above, except that biotin ligase (BirA) was co-expressed during fermentation. […] Avi-tagged zymogen C163A-caspase-6 was processed to mature C163A-caspase-6 by the addition of active caspase-3 and caspase-6. Chip preparation for neutravidin-based capture was performed as previously described using either a Biacore T100 or Biacore 3000 instrument (GE Healthcare). Running buffer was 50 mM HEPES pH 7.2, 100 mM MgSO4, 30 mM NaCl, 1 mM TCEP, 0.01% Triton X-100, 1% PEG-3350, 2.5% DMSO, and the instrument was set for 20 degrees C. After capture one flow cell of apo-caspase-6 was exposed to a continuous flow of 20 µM VEID-FMK. A rise in signal could be detected for the binding/reacting of the VEID-FMK and exposure was continued until no additional rise in response was observed (∼45 minutes) indicating full saturation of all binding sites. There was no observed decrease in signal upon washing, indicating the reaction was irreversible. […] Fluorescent substrates were too limiting in solubility and quantity to be added to the running buffer, so substrates were mixed at a concentration equal to their Kmapp with 3 and injected together over the indicated surfaces. […]

[2] = target: T2, covalent VEID/caspase-6 complex (Homo sapiens, UniProt P55212); experiment: SPR binding to VEID-FMK-blocked caspase-6; conditions: covalent VEID/caspase-6 (acyl enzyme) complex, 1:1 binding
T2 construct: Residues 24-179 and 194-293 from caspase-6 cDNA (Origene) were cloned into pET-24b and pET-23b vectors; 6x histidine tag; made in house; host or cells: E. coli (as above), BirA co-expressed
T2 sequence (P55212 24-179): T1 sequence (P55212 24-179 C163A) with A140C
T2 sequence (P55212 194-293): T1 sequence (P55212 194-293)
Protocol: as §1

pKd [1]: ~6.70
pKd [2]: 5.89
Compound: COc1ccc(-c2cc(C(=O)N[C@@H](CO)Cc3cccc(C#N)c3)co2)cc1OC [Compound 3]
